According to ChEMBL document CHEMBL3507680, “University of Dundee, Gates Library screen for HepG2 cell viability”:

Assay: Human HepG2 cell viability assay in 384 well format
Format: toxicity, cell-based
Design: dose 125 nL, time 70.5 hour; cytotoxicity at 70.5 h: concentration not given beside the values
Conditions: HepG2 cells, read-out: Inhibition

Cc1cc(C(O)CCNC(=O)COc2ccccc2C)c(C)o1 (stereo not drawn)
cytotoxicity at 70.5 h: -2.27%

Cc1nn(C)c(N2CCOCC2)c1CNCc1cscn1
cytotoxicity at 70.5 h: -9.09%

Cc1ccc(CN2CCC3(CCN(S(=O)(=O)c4ccccc4)C3)C2)o1 (stereo not drawn)
cytotoxicity at 70.5 h: 27.1%

CCc1nc(N2CCCC(CCCOC)C2)c2cnn(C)c2n1 (stereo not drawn)
cytotoxicity at 70.5 h: -5.41%

COCCN1CCCC1c1nccnc1Nc1nccs1 (stereo not drawn)
cytotoxicity at 70.5 h: -4.09%

COc1ncccc1NC(=O)N(CC(C)C)C1CC1
cytotoxicity at 70.5 h: -8.09%

O=C(c1ccoc1)N1CC[C@H]2[C@H]1CCN2CC1CC1
cytotoxicity at 70.5 h: -3.04%

O=C(Cn1c(=O)n(Cc2ccco2)c2ncccc21)Nc1ccccn1
cytotoxicity at 70.5 h: -4.41%

CCOCC(=O)N1C[C@@H](O)[C@H](NC(C)=O)C1
cytotoxicity at 70.5 h: -4.78%

c1cnnc(N[C@@H]2CC[C@@H]3CN(Cc4c[nH]c5ccccc45)C[C@@H]32)c1
cytotoxicity at 70.5 h: 4.96%

CC(C)CNC(=O)c1c(-n2cnnn2)sc2c1CCC2
cytotoxicity at 70.5 h: -13.7%

CNc1cc(C2CCCNC2)nc(C)n1 (stereo not drawn)
cytotoxicity at 70.5 h: 16.2%

Cc1cc(C)n(CC2CCCCN2C(=O)c2ccc3c(c2)COC3)n1 (stereo not drawn)
cytotoxicity at 70.5 h: 2.1%

Cc1ccc(C(C)(O)CNC(=O)CCn2ccnc2C(C)C)o1 (stereo not drawn)
cytotoxicity at 70.5 h: -2.97%

CCOc1ccc(CC(=O)N2C[C@H](C3CC3)[C@@H](N)C2)cc1
cytotoxicity at 70.5 h: 37.4%

COC(=O)c1ccc(N2CCC(c3ccccc3)CC2)nn1
cytotoxicity at 70.5 h: -8.39%

Cc1cnn(CCNCc2ccc(C#N)cc2)c1
cytotoxicity at 70.5 h: -1.47%

CC(C)C1CN(Cc2nccn2C)CCC(=O)N1CC1CC1 (stereo not drawn)
cytotoxicity at 70.5 h: -2.87%

COc1ccccc1CN(C)C(=O)CN1C(=O)OC[C@@H]1c1ccccc1
cytotoxicity at 70.5 h: 19.7%

CCc1ocnc1C(=O)N1CCOC(CCCC(C)C)C1 (stereo not drawn)
cytotoxicity at 70.5 h: -12.3%

CO[C@@H]1CCC[C@@H](N(C)C(=O)c2cn3cc(C)ccc3n2)[C@H]1O
cytotoxicity at 70.5 h: -8.11%

O=C(N[C@]12CC1CN(C(=O)c1ccco1)C2)c1cccc(F)c1 (stereo partly drawn)
cytotoxicity at 70.5 h: 13.8%

O=C(c1ccncc1)N1C[C@@H]2OCCN(CCN3CCCC3)[C@@H]2C1
cytotoxicity at 70.5 h: -4.2%

CN(Cc1ccco1)C[C@H]1OC[C@@H]2CCN(Cc3ccsc3)C[C@@H]21
cytotoxicity at 70.5 h: -7.38%

CCOc1ncccc1CNc1cc(COC)ncn1
cytotoxicity at 70.5 h: 1.28%

COc1ccc(CN(Cc2nc(C)no2)C2CCCCC2)cc1OC
cytotoxicity at 70.5 h: -1.31%

CCCC1COCCN1Cc1ccc(C(=O)O)cc1 (stereo not drawn)
cytotoxicity at 70.5 h: -4.7%

Cc1cccc(Sc2nccn(C)c2=O)c1
cytotoxicity at 70.5 h: -13.8%

Cc1nc[nH]c1-c1c(-c2ccccc2)ncn1C1CCNC1 (stereo not drawn)
cytotoxicity at 70.5 h: -1.75%

O=C(Nc1ccc(F)cc1)N1CCN(Cc2noc(C3CC3)n2)CC1
cytotoxicity at 70.5 h: 1.53%

Cc1cc(N(Cc2cccs2)C2CC2)n2nc(C(F)(F)F)nc2n1
cytotoxicity at 70.5 h: -1.76%

O=C(NCC(F)(F)C(F)F)c1ccncc1
cytotoxicity at 70.5 h: -8.69%

Cn1cc(C2CCCN2Cc2cscn2)cn1 (stereo not drawn)
cytotoxicity at 70.5 h: -2.56%

O=C(CCS(=O)(=O)C1CCCC1)N1CCCC(n2ccnc2)C1 (stereo not drawn)
cytotoxicity at 70.5 h: 6.79%

Cn1nnc2cc(C(=O)NS(=O)(=O)c3cccc(C#N)c3)ccc21
cytotoxicity at 70.5 h: -5.98%

CS(=O)(=O)Cc1ccc(C(=O)NCC2Cc3ccccc3O2)cc1 (stereo not drawn)
cytotoxicity at 70.5 h: -0.3%

Cc1ccc(CN2CCCn3c(nc(Cn4cncn4)cc3=O)C2)s1
cytotoxicity at 70.5 h: -19.3%

CN(CC1CCCO1)c1nc(-c2cccnc2)nc2c1CCNCC2 (stereo not drawn)
cytotoxicity at 70.5 h: -10.6%

Cc1cc(CC(=O)N2CCN(CC3CC3)[C@@H]3CS(=O)(=O)C[C@@H]32)ccc1F
cytotoxicity at 70.5 h: 4.69%

COc1cccc(COCC(=O)NC(C)c2nnc3n2CCC3)c1 (stereo not drawn)
cytotoxicity at 70.5 h: 1.6%

CCc1nc(C2CCCN2Cc2noc(Cc3ccccc3)n2)no1 (stereo not drawn)
cytotoxicity at 70.5 h: -7.3%

CCc1nc(C)sc1CN1C[C@@H](C)[C@@](C)(O)C1
cytotoxicity at 70.5 h: -11.2%

O=C(Cn1cccn1)NCC(c1cccs1)N1CCCC1 (stereo not drawn)
cytotoxicity at 70.5 h: -11.9%

Cc1nc2ccccc2n1Cc1cc(C(=O)NC2CCOC2)no1 (stereo not drawn)
cytotoxicity at 70.5 h: -18.8%

Cc1nc(C)n(CC2CCCN2c2ccnc(-c3ccccc3)n2)n1 (stereo not drawn)
cytotoxicity at 70.5 h: -6.3%

N#Cc1cccc(C(=O)NS(=O)(=O)c2ccc(C#N)c(Cl)c2)c1
cytotoxicity at 70.5 h: 27.3%

Cc1cc(C)nc(N2Cc3cnn(Cc4ccc(F)cc4)c3C2)n1
cytotoxicity at 70.5 h: 13.2%

COCCN1CCCC12CCCN(c1ncccn1)C2 (stereo not drawn)
cytotoxicity at 70.5 h: -2.34%

CCC1c2ccsc2CCN1C(=O)NCc1cc(C)on1 (stereo not drawn)
cytotoxicity at 70.5 h: -4.73%

CCCn1nc2c(cc1=O)CN(Cc1cc(C)on1)CC2
cytotoxicity at 70.5 h: 4.88%

CCn1cc(S(=O)(=O)N2CCC(C)Sc3ccccc32)cn1 (stereo not drawn)
cytotoxicity at 70.5 h: -1.33%

CN(Cc1nnc(-c2ccco2)o1)Cc1nc2c(s1)CCCC2
cytotoxicity at 70.5 h: -11.2%

COCCN1C[C@@H](C)[C@@]2(COCCN(C(=O)c3cccc(C)n3)C2)C1
cytotoxicity at 70.5 h: 0.709%

O=C(CCc1cc(F)ccc1F)NS(=O)(=O)c1ccc2c(c1)OCCO2
cytotoxicity at 70.5 h: 0.522%

C[C@@H]1CN(CCC(=O)N(C)Cc2ccccc2)CC[C@@]1(O)C1CCC1
cytotoxicity at 70.5 h: 21.4%

CC(C)Cc1noc(CN2CCC(NC(=O)c3cccs3)CC2)n1
cytotoxicity at 70.5 h: -8.58%

O=S(=O)(Cc1ccccc1CN1CCOCC(O)C1)c1ccccc1 (stereo not drawn)
cytotoxicity at 70.5 h: 14.8%

CC(=O)N1CCN(CCNS(=O)(=O)c2ccc(C)c(F)c2)CC1
cytotoxicity at 70.5 h: 28.3%

CCC(Nc1nc(C)nc2onc(C)c12)c1cccs1 (stereo not drawn)
cytotoxicity at 70.5 h: -2.98%

Cc1ccc(C)c(OC2CCN(C(=O)c3ccc(C)[nH]c3=O)CC2)c1
cytotoxicity at 70.5 h: -11%

CNC(=O)[C@@H]1C[C@H](N)CN1Cc1cc2cc(C)cc(C)c2[nH]c1=O
cytotoxicity at 70.5 h: -13.7%

O=S1(=O)COCCN1Cc1ccc(F)cc1Cl
cytotoxicity at 70.5 h: -9.29%

O=C(c1ccccc1)N1CCCC(Nc2ccc(F)cc2)C1 (stereo not drawn)
cytotoxicity at 70.5 h: -1.68%

Cc1ccc(CN(C)C(=O)Cn2nc(-c3ccc(F)cc3)oc2=O)cc1
cytotoxicity at 70.5 h: -7.04%

CCc1nc2c(c(N3CCOCC3)n1)CCN(C(=O)N1CCCC1)CC2
cytotoxicity at 70.5 h: -6.31%

COc1cccc(C2CN(CCc3ccncc3)CCO2)c1 (stereo not drawn)
cytotoxicity at 70.5 h: -6.16%

Cc1ccc2[nH]c(CO[C@H]3CN(c4ccc(C#N)cn4)C[C@H]3F)nc2c1
cytotoxicity at 70.5 h: -3.04%

O=C(CN1CCCc2c(F)cc(Br)cc21)N1CCCC1
cytotoxicity at 70.5 h: 3.5%

CN1CCCC(c2cccc(-c3ccccc3F)n2)C1 (stereo not drawn)
cytotoxicity at 70.5 h: -2.39%

CCOC(=O)N1[C@@H](c2ccco2)[C@@H](C(=O)NC)C[C@]12CCCCNC2=O
cytotoxicity at 70.5 h: 15.2%

COc1ccc2c(c1)OCC(CNC(=O)c1cc(C(C)C)on1)C2 (stereo not drawn)
cytotoxicity at 70.5 h: -20.5%

Cc1ccc2c(n1)N(Cc1cccnc1)CCN(C1CCOCC1)C2
cytotoxicity at 70.5 h: 2.27%

CN(Cc1cnn(C)c1)C(=O)NC1CCC(O)CC1 (stereo not drawn)
cytotoxicity at 70.5 h: -7.28%

CN(C)c1ncc(-c2cncnc2)c(C2CNCCO2)n1 (stereo not drawn)
cytotoxicity at 70.5 h: -8.74%

CC1CN(C(=O)NCCn2ccnc2)CCO1 (stereo not drawn)
cytotoxicity at 70.5 h: -1.49%

CCc1nc(C2CCCN2Cc2nnc(CC)o2)no1 (stereo not drawn)
cytotoxicity at 70.5 h: -9.92%

Cc1cnn(CCC(=O)N2CCCC(c3cc(C)[nH]n3)C2)c1 (stereo not drawn)
cytotoxicity at 70.5 h: 49%

O=C(Nc1ccccc1)N1C[C@H]2C[C@H](C(=O)N3CCCC3)[C@@H](C1)O2
cytotoxicity at 70.5 h: 15.5%

CC(C)NC(=O)NC(C)c1ccc(-c2ccncc2)cc1 (stereo not drawn)
cytotoxicity at 70.5 h: -7.15%

COc1cc(NCCNC(=O)c2cc[nH]c2C)cc(OC)c1
cytotoxicity at 70.5 h: 3.9%

COc1ccc(C(=O)N2CC(=O)N(CC3CC3)CC(O)C2)cc1 (stereo not drawn)
cytotoxicity at 70.5 h: -4%

Cc1c(C)n2c(SCC(=O)N3CCCC3)nnc2[nH]c1=O
cytotoxicity at 70.5 h: -7.34%

O=C(NC1CC1)c1cc(NC(=O)N2CCSCC2)ccc1Cl
cytotoxicity at 70.5 h: 15.9%

COc1ccc(C(O)CNC(=O)NCCc2csc(C)n2)cc1 (stereo not drawn)
cytotoxicity at 70.5 h: -4.45%

c1cnnc(N2CCCC(NCc3cccc4c3OCO4)C2)c1 (stereo not drawn)
cytotoxicity at 70.5 h: 1.39%

CC1(C)OCC(CNC(=O)c2cnn(-c3cc(Cl)ccc3Cl)c2N)O1 (stereo not drawn)
cytotoxicity at 70.5 h: -5.2%

Cc1ccc(-c2n[nH]cc2CNCCn2cccn2)o1
cytotoxicity at 70.5 h: 2.17%

COCCn1cncc1Cn1cccc(C(F)(F)F)c1=O
cytotoxicity at 70.5 h: 6.51%

CC1CCc2nc(O)c(C(=O)NCc3cccc(F)c3)cc2C1 (stereo not drawn)
cytotoxicity at 70.5 h: -3.12%

CC(C)CN1C[C@H]2C[C@H](C(=O)N3CCCC3)[C@@H](C1)O2
cytotoxicity at 70.5 h: -2.66%

Oc1ccc(CCC2CCCCN2Cc2noc(C3CC3)n2)cc1 (stereo not drawn)
cytotoxicity at 70.5 h: 15.5%

CCn1c(C(=O)N2CCN(CC[S+](C)[O-])CC2)cc2ccccc21 (stereo not drawn)
cytotoxicity at 70.5 h: 0.944%

CC(C)=CCN1CCN(Cc2cc(C)c(O)c(C)c2)CC1CCO (stereo not drawn)
cytotoxicity at 70.5 h: 9.39%

Cc1nnc(NCC(c2ccco2)N2CCCC2)c(C#N)c1C (stereo not drawn)
cytotoxicity at 70.5 h: 3.51%

CNC(=O)NC(=O)CCN1CCN(c2nccs2)CC1
cytotoxicity at 70.5 h: -0.375%

Cn1cc(CN2C[C@@H]3CN(Cc4ccoc4)CCO[C@@H]3C2)cn1
cytotoxicity at 70.5 h: -3.44%

O=C1[C@@H]2CCN(Cc3ccncc3)C[C@@H]2OCCN1c1ccccc1
cytotoxicity at 70.5 h: -8.52%

CCOc1ccc(C2SCC(=O)Nc3c2c(=O)[nH]n3C(CC)CC)cc1 (stereo not drawn)
cytotoxicity at 70.5 h: -6.79%

CCC[C@H]1CN(S(=O)(=O)c2cc(C)ccc2F)C[C@@H]1N
cytotoxicity at 70.5 h: -0.888%

CNC(=O)c1cc2c(nc1NCC(C)C)CCN(C)CC2
cytotoxicity at 70.5 h: 0.255%

O=C(NC1CCS(=O)(=O)C1)c1cn(C2CC2)c(=O)c2ccccc12 (stereo not drawn)
cytotoxicity at 70.5 h: -14.3%

CCOC1COC2(CCN(S(=O)(=O)c3cccc(C)c3)CC2)C1 (stereo not drawn)
cytotoxicity at 70.5 h: -6.02%

CNC(=O)CN1CC[C@H]2CN(C(=O)c3cccc(C)c3)C[C@H]2C1
cytotoxicity at 70.5 h: -2.46%

Cc1nc(C)n(CC2CN(CCOc3ccccc3F)CCO2)n1 (stereo not drawn)
cytotoxicity at 70.5 h: -10.8%

NC(=O)c1nc2c(s1)CCN(Cc1ccccc1)CC2
cytotoxicity at 70.5 h: -2.47%

Nc1nc2c(c(=O)[nH]1)CCN(C(=O)c1cccc3nccnc13)C2
cytotoxicity at 70.5 h: -13.2%

CC(=O)c1ccc(S(=O)(=O)N2CCCC2CN2CCCC2)cc1 (stereo not drawn)
cytotoxicity at 70.5 h: -8.94%

COC[C@]1(O)CCN(Cc2cnc(N3CCOCC3)nc2)CC1(C)C
cytotoxicity at 70.5 h: -14.6%

O=C(CSc1nnc(N2CCNCC2)s1)Nc1ccccc1
cytotoxicity at 70.5 h: 27.6%

Cc1nc(CN2CCCC(CCNS(C)(=O)=O)C2)c[nH]1 (stereo not drawn)
cytotoxicity at 70.5 h: -11.3%

CCc1nccn1-c1nccnc1C1CCCN(C(=O)COC)C1 (stereo not drawn)
cytotoxicity at 70.5 h: -6.06%

CN(Cc1cnc(N)nc1)C(=O)c1coc(COc2cccc(F)c2)n1
cytotoxicity at 70.5 h: 0.199%

Cc1noc(CCCNC(=O)C2CSCN2C(=O)C(C)(C)C)n1 (stereo not drawn)
cytotoxicity at 70.5 h: 18.7%
